Results published in patent US20040086901A1, “Database for analyzing gene function and method of analyzing gene function by dspa” (priority 2000, published 2004).

Columns and labels:
Format in all cases: cell-based, mouse
[1] = tested on: NIH3T3 cells overexpressing PDGF-R-Del; test: MTT cell viability, PDGF-R-Del overexpressing cells vs parental line; details: PDGF-R-Del high-expressing cells / parental cell line, 3 to 4 days
Description: (§1) With regard to the function-known genes, the genes shown in the left column of Table 2 were used. With regard to the drugs, those shown in Table 1 were dissolved in DMSO to an extent of 100-fold of the maximum concentration for the search of the drugs and used. With regard to the cells, incubated NIH3T3 or ras-NIH3T3 cells were used.
(§2) Full-length cDNA of each function-known genes was incorporated into an expression vector (pRc-CMV, etc.) and transfected into NIH3T3 cells by a common method. Transformed cells were isolated using the resistance to G-418 as an index and the expression of the transfected gene in each cell was investigated by Western blotting method to select a highly expressing line.
(§3) Cell viabilities were measured according to the following procedures.
(§4) 1) From the 2nd to the 11th rows of a 96-well plate were filled with DMEM (50 μl). The 12th row was filled with 100 μl of DMEM.
(§5) 2) The 1st row was filled with 98 μl of DMEM.
(§6) 3) Drugs (2 μl each) were added into the 1st row.
(§7) 4) Continuous double-dilution was conducted from the 1st to the 9th rows. Fifty μl were taken out from the 9th row and discarded. The plate was preserved in a CO2 incubator.
(§8) 5) Cells (each high-expressing cells and the parental cell line) were detached from the medium using a trypsin solution, suspended in 10% CS-DMEM and transferred to a test tube and cell numbers (cell/ml) were counted.
(§9) 6) The cells were diluted to a concentration of 1×10^5 cells/ml, and 50 μl of the cell suspension were added to the 1st to the 11th rows of the plate followed by gently stirring.
(§10) 7) The plate was transferred to the CO2 incubator and incubated for 3 to 4 days.
(§11) 8) MTT (5 mg/ml in PBS) (10 μl) was added to the 1st to the 12th rows of the plate and incubated in the CO2 incubator at 37° C. for 4 hours.
(§12) 9) A reaction stop solution (0.04N HCl in isopropanol) (150 μl) was added followed by mixing well and being allowed to stand at room temperature for about 2 hours.
(§13) 10) Coloration of formazan which was a metabolite of the MTT dye was measured using a microplate reader. The measurement wavelength was 574 nm and the reference wavelength was 655 nm. The 10th and the 11th rows of the plate were 100% controls and the 12th row was a 0% control.
(§14) As an index for the sensitivity of highly gene-expressing cells and the parental cell line to various drugs, each of the IC40 values thereof was specified and ratios of the IC40 values were calculated. FIG. 2 and FIG. 3 are the examples where ratios of IC40 values were calculated from a curve showing the dependency on the concentration of the chemical versus the viability. After that, logarithmic values of ratios of IC40 values were calculated from each gene.

[2] = tested on: NIH3T3 cells overexpressing Gluco-corticoid-R; test: MTT cell viability, Gluco-corticoid-R overexpressing cells vs parental line; details: Gluco-corticoid-R high-expressing cells / parental cell line, 3 to 4 days
Description: as §1, §2, §3, §4, §5, §6, §7, §8, §9, §10, §11, §12, §13
(§15) As an index for the sensitivity of highly gene-expressing cells and the parental cell line to various drugs, each of the IC40 values thereof was specified and ratios of the IC40 values were calculated. […] After that, logarithmic values of ratios of IC40 values were calculated from each gene.

[3] = tested on: NIH3T3 cells overexpressing p33/ING1; test: MTT cell viability, p33/ING1 overexpressing cells vs parental line; details: p33/ING1 high-expressing cells / parental cell line, 3 to 4 days
Description: as §1, §2, §3, §4, §5, §6, §7, §8, §9, §10, §11, §12, §13, §14

[4] = tested on: NIH3T3 cells overexpressing HSP4O; test: MTT cell viability, HSP4O overexpressing cells vs parental line; details: HSP4O high-expressing cells / parental cell line, 3 to 4 days
Description: as §1, §2, §3, §4, §5, §6, §7, §8, §9, §10, §11, §12, §13, §14

[5] = tested on: NIH3T3 cells overexpressing PKCepsilon-KN; test: MTT cell viability, PKCepsilon-KN overexpressing cells vs parental line; details: 3 to 4 days
Description: as §1, §2, §3, §4, §5, §6, §7, §8, §9, §10, §11, §12, §13, §15

[6] = tested on: NIH3T3 cells overexpressing p16/INK4A; test: MTT cell viability, p16/INK4A overexpressing cells vs parental line; details: p16/INK4A high-expressing cells / parental cell line, 3 to 4 days
Description: as §1, §2, §3, §4, §5, §6, §7, §8, §9, §10, §11, §12, §13, §14

[7] = tested on: NIH3T3 cells overexpressing CP-antisense; test: MTT cell viability, CP-antisense cells vs parental line; details: 3 to 4 days
Description: as §1, §2, §3, §4, §5, §6, §7, §8, §9, §10, §11, §12, §13, §14

[8] = tested on: NIH3T3 cells overexpressing HSP9O; test: MTT cell viability, HSP9O overexpressing cells vs parental line; details: HSP9O high-expressing cells / parental cell line, 3 to 4 days
Description: as §1, §2, §3, §4, §5, §6, §7, §8, §9, §10, §11, §12, §13, §14

[9] = tested on: NIH3T3 cells overexpressing Bax; test: MTT cell viability, Bax overexpressing cells vs parental line; details: 3 to 4 days
Description: as §1, §2, §3, §4, §5, §6, §7, §8, §9, §10, §11, §12, §13, §15

[10] = tested on: NIH3T3 cells overexpressing caspase-3; test: MTT cell viability, caspase-3 overexpressing cells vs parental line; details: caspase-3 high-expressing cells / parental cell line, 3 to 4 days
Description: as §1, §2, §3, §4, §5, §6, §7, §8, §9, §10, §11, §12, §13, §15

[11] = tested on: NIH3T3 cells overexpressing erbB2; test: MTT cell viability, erbB2 overexpressing cells vs parental line; details: erbB2 high-expressing cells / parental cell line, 3 to 4 days
Description: as §1, §2, §3, §4, §5, §6, §7, §8, §9, §10, §11, §12, §13, §14

[12] = tested on: NIH3T3 cells overexpressing coup; test: MTT cell viability, coup overexpressing cells vs parental line; details: coup high-expressing cells / parental cell line, 3 to 4 days
Description: as §1, §2, §3, §4, §5, §6, §7, §8, §9, §10, §11, §12, §13, §14

[13] = tested on: NIH3T3 cells overexpressing p38-DN; test: MTT cell viability, p38-DN overexpressing cells vs parental line; details: p38-DN high-expressing cells / parental cell line, 3 to 4 days
Description: as §1, §2, §3, §4, §5, §6, §7, §8, §9, §10, §11, §12, §13, §15

[14] = tested on: NIH3T3 cells overexpressing HNF4; test: MTT cell viability, HNF4 overexpressing cells vs parental line; details: HNF4 high-expressing cells / parental cell line, 3 to 4 days
Description: as §1, §2, §3, §4, §5, §6, §7, §8, §9, §10, §11, §12, §13, §15

[15] = tested on: NIH3T3 cells overexpressing DAN; test: MTT cell viability, DAN overexpressing cells vs parental line; details: DAN high-expressing cells / parental cell line, 3 to 4 days
Description: as §1, §2, §3, §4, §5, §6, §7, §8, §9, §10, §11, §12, §13, §14

[16] = tested on: NIH3T3 cells overexpressing HNF3b; test: MTT cell viability, HNF3b overexpressing cells vs parental line; details: HNF3b high-expressing cells / parental cell line, 3 to 4 days
Description: as §1, §2, §3, §4, §5, §6, §7, §8, §9, §10, §11, §12, §13, §15

[17] = tested on: NIH3T3 cells overexpressing Ha-ras; test: MTT cell viability, drug sensitivity of Ha-ras overexpressing cells vs parental line; details: Ha-ras high-expressing cells / parental cell line, 3 to 4 days
Description: as §1, §2, §3, §4, §5, §6, §7, §8, §9, §10, §11, §12, §13, §15

[18] = tested on: NIH3T3 cells, TPA (PKC downreg); test: MTT cell viability, TPA (PKC downreg) cells vs parental line; details: 3 to 4 days
Description: as §1, §2, §3, §4, §5, §6, §7, §8, §9, §10, §11, §12, §13, §14

[19] = PKCepsilon-KN (first of two lines) high-expressing cells / parental cell line
[20] = PKCepsilon-KN (second of two lines) high-expressing cells / parental cell line
[21] = Bax (first of two Bax lines) high-expressing cells / parental cell line
[22] = Bax (second of two Bax lines) high-expressing cells / parental cell line

Row | SMILES | logarithmic value of ratio of IC40 values [1] | logarithmic value of ratio of IC40 values [2] | logarithmic value of ratio of IC40 values [3] | logarithmic value of ratio of IC40 values [4] | logarithmic value of ratio of IC40 values [5, 19] | logarithmic value of ratio of IC40 values [5, 20] | logarithmic value of ratio of IC40 values [6] | logarithmic value of ratio of IC40 values [7] | logarithmic value of ratio of IC40 values [8] | logarithmic value of ratio of IC40 values [9, 21] | logarithmic value of ratio of IC40 values [9, 22] | logarithmic value of ratio of IC40 values [10] | logarithmic value of ratio of IC40 values [11] | logarithmic value of ratio of IC40 values [12] | logarithmic value of ratio of IC40 values [13] | logarithmic value of ratio of IC40 values [14] | logarithmic value of ratio of IC40 values [15] | logarithmic value of ratio of IC40 values [16] | logarithmic value of ratio of IC40 values [17] | logarithmic value of ratio of IC40 values [18]
1 | O=CN/C=C/c1cc(O)ccc1O [Erbstatin, erbstatin] | 0.00 | 0.06 | 0.11 | 0.00 | −0.12 | 0.00 | 0.51 | 0.06 | 0.26 | 0.27 | 0.04 | −0.10 | −0.05 | 0.33 | 0.06 | 2.00 | 0.20 | −0.03 | 0.08 | 0.00
2 | C=C[C@@]1(C)CC(=O)[C@]2(O)[C@@]3(C)[C@@H](O)CCC(C)(C)[C@@H]3[C@H](O)[C@H](OC(C)=O)[C@@]2(C)O1 [Forskolin, forskolin] | 0.51 | 0.33 | 0.63 | −0.39 | 0.00 | 0.00 | 0.70 | −0.05 | 0.94 | 0.00 | −0.26 | 1.12 | 0.28 | 0.78 | −0.46 | 0.00 | 0.88 | 0.00 | 0.26 | −0.17
3 | O=c1c(-c2ccc(O)cc2)coc2cc(O)cc(O)c12 [Genistein, genistein] | 0.33 | 0.02 | 0.78 | 0.00 | 0.00 | 0.19 | 0.40 | 0.00 | 0.41 | 0.20 | 0.38 | 0.04 | −0.60 | 0.44 | 0.00 | −0.15 | 0.20 | −0.21 | −0.35 | −0.09
4 | COC(=O)[C@@]1(O)C[C@H]2O[C@]1(C)n1c3ccccc3c3c4c(c5c6ccccc6n2c5c31)C(=O)NC4 [K252a] | 0.10 | 0.13 | 0.28 | 0.07 | 0.00 | −0.09 | −0.22 | 0.00 | 0.56 | −0.11 | 0.60 | 0.15 | 0.15 | 0.00 | −0.15 | −0.22 | −0.46 | −0.21 | 0.65 | −0.13
5 | CN[C@@H]1C[C@H]2O[C@@](C)([C@@H]1OC)n1c3ccccc3c3c4c(c5c6ccccc6n2c5c31)C(=O)NC4 [Staurosporine] | 0.28 | −0.28 | 0.62 | 0.30 | – | – | −0.22 | −0.15 | 0.22 | −0.22 | – | – | 0.04 | 0.08 | −0.05 | 0.04 | 0.48 | – | 0.30 | −0.12
6 | COC[C@H]1OC(=O)c2coc3c2[C@@]1(C)C1=C(C3=O)[C@@H]2CCC(=O)[C@@]2(C)C[C@H]1OC(C)=O [Wortmannin, wortmannin] | 0.07 | 0.09 | 0.00 | −0.07 | −0.15 | −0.28 | 0.30 | −0.12 | 0.18 | 0.14 | 0.10 | 0.45 | 0.16 | 0.10 | −0.18 | 0.14 | 0.52 | 0.24 | 0.34 | 0.00
